The values that follow come from ChEMBL document CHEMBL4888484, “Replenishing the malaria drug discovery pipeline: Screening and hit evaluation of the MMV Hit Generation Library 1 (HGL1) against asexual blood stage Plasmodium falciparum ,using a nano luciferase reporter read-out” (2022).

A short description of series [1]: Hit confirmation in dose-response curve in HepG2 cytotoxicity assay, at 72h. The series is classed as toxicity, cell-based. Also noted: timepoint 72 hour. The settings on record: human, HepG2 cells.
The test system of series [2] is Plasmodium falciparum. Briefly: Hit confirmation in dose-response curve in NF54 nanoGlo assay, at 72h. Also noted: timepoint 72 hour. The series is classed as functional, organism-based, Erythrocyte. The settings on record: Plasmodium falciparum, NF54, Erythrocyte, 72 h.
Series [3] has as its system Plasmodium falciparum. The experiment in a line: Hit confirmation in dose-response curve in Dd2 pLDH assay, at 72h. The series is classed as functional, organism-based. Also noted: timepoint 72 hour. The conditions noted are these: Dd2, Erythrocyte.
Series [4] has as its system Plasmodium falciparum. The experiment in a line: Hit confirmation in dose-response curve in NF54 pLDH assay, at 72h. The series is classed as functional, organism-based. The settings on record: NF54, Erythrocyte. On the set-up: timepoint 72 hour.
The subject of series [5] is Plasmodium falciparum. Briefly: Hit confirmation in dose-response curve in NF54 nanoGlo assay, at 12h. Also noted: timepoint 12 hour. The series is classed as functional, organism-based, Erythrocyte. The settings on record: Plasmodium falciparum, NF54, Erythrocyte, 12 h.

In series [1], `Oc1nc(N2CCOC3(CCCC3)C2)ncc1F` returned a half-maximal inhibitory concentration (IC50) at 72 h of more than 10 µM. For the same compound, the IC50 in the series with Plasmodium falciparum [2] was 2.57 µM; in the series with Plasmodium falciparum [3], more than 10 µM; in the series with Plasmodium falciparum [4], 4.27 µM; in the series with Plasmodium falciparum [5] it was more than 10 µM.
Take `O=C(N[C@@H](Cn1nccn1)c1ccccc1)c1cc(Br)ccc1Cl`: the concentration for half-maximal inhibition (IC50) at 72 h in series [1] was more than 10 µM. For the same compound, the IC50 with Plasmodium falciparum [2] is 1.74 µM; with Plasmodium falciparum [3], 2.95 µM; in the series with Plasmodium falciparum [4], 2.75 µM; in the series with Plasmodium falciparum [5], more than 10 µM.
Consider `COc1ccc2[nH]c3c(c2c1)CC(C(=O)O)NC3c1ccc(OC)c(CN2CCN(c3ccccc3F)CC2)c1` (stereo not given), for which the IC50 at 72 h in series [1] is more than 10 µM. Also, the IC50 came to 1.55 µM in the series with Plasmodium falciparum [2], 2.88 µM in the series with Plasmodium falciparum [3], 3.8 µM with Plasmodium falciparum [4] and 3.98 µM in the series with Plasmodium falciparum [5].
In the same order, the values of `Nc1nc(N2CCN(c3ccc(F)c(Cl)c3)CC2)cc([C@H]2C[C@@H](N)C2)n1` are more than 10 µM, 2.75 µM, 6.31 µM, 5.75 µM and 6.31 µM.
For `Cn1cncc1CC(=O)Nc1ccnc(NC(=O)OC(C)(C)C)c1`, the IC50 at 72 h in series [1] was more than 10 µM. For the same compound, the IC50 in the series with Plasmodium falciparum [2] turned out to be 1.23 µM; with Plasmodium falciparum [3], 2.14 µM; in the series with Plasmodium falciparum [4] it was 3.8 µM; with Plasmodium falciparum [5], 1.78 µM.
On the same counts, the results for `COc1ccc(CN(Cc2ccncc2)CC2CCN(C3CCN(C)CC3)CC2)c(F)c1` are more than 10 µM, 1.29 µM, 1.17 µM, 1.45 µM and 2.82 µM.
Consider `O=C(N[C@@H]1CN(Cc2ccccn2)CCC[C@H]1O)c1ccc(OCc2ccccc2)cc1`, for which the IC50 at 72 h in series [1] was more than 10 µM. For the same compound, the IC50 in the series on Plasmodium falciparum [2] was 2.45 µM; in the series with Plasmodium falciparum [3], 2.29 µM; in the series with Plasmodium falciparum [4], 4.07 µM; in the series with Plasmodium falciparum [5], more than 10 µM.
`COc1ccc(C(=O)C[n+]2nc(CNc3ccc(Br)cc3)n3c2CCCCC3)cc1` showed an IC50 at 72 h in series [1] of more than 10 µM. For the same compound, the IC50 stood at 0.537 µM in the series on Plasmodium falciparum [2], 0.646 µM in the series on Plasmodium falciparum [3], 0.759 µM in the series with Plasmodium falciparum [4] and 9.55 µM in the series with Plasmodium falciparum [5].
Take `C[C@@H](CN)N(C)c1ccnc2cc(Br)cnc12`: the IC50 at 72 h in series [1] was more than 10 µM. In addition, the IC50 was found to be 0.513 µM in the series on Plasmodium falciparum [2], 0.447 µM in the series on Plasmodium falciparum [3], 0.562 µM in the series on Plasmodium falciparum [4] and 0.661 µM in the series with Plasmodium falciparum [5].
In series [1], `Cc1ccc(S(=O)(=O)Nc2cc3nc4ccccc4nc3n2CCc2ccccc2)cc1` showed an IC50 at 72 h of more than 10 µM. The IC50 in the series with Plasmodium falciparum [2] is 2.34 µM; with Plasmodium falciparum [3], more than 10 µM; in the series on Plasmodium falciparum [4], 10 µM; in the series with Plasmodium falciparum [5] it was 3.24 µM.
Compound `CCOc1ccc(Nc2c3ccccc3nc3ccccc23)cc1` gave an IC50 at 72 h in series [1] of more than 10 µM. Besides, the IC50 with Plasmodium falciparum [2] turned out to be 1.55 µM; in the series with Plasmodium falciparum [3], 1.86 µM; in the series on Plasmodium falciparum [4], 3.47 µM; in the series on Plasmodium falciparum [5] it was 5.75 µM.
For `COc1nc(N2[C@@H]3CC[C@H]2C[C@@H](OC)C3)ncc1F`, the IC50 at 72 h in series [1] is more than 10 µM. The IC50 is 4.07 µM in the series with Plasmodium falciparum [2], more than 10 µM in the series with Plasmodium falciparum [3], 6.17 µM in the series on Plasmodium falciparum [4] and more than 10 µM with Plasmodium falciparum [5].
With `CC[C@@]1(C)CCCN(C(=O)Cc2c(C)noc2Cl)C1`, the IC50 at 72 h in series [1] was more than 10 µM. The IC50 with Plasmodium falciparum [2] was 1.51 µM; with Plasmodium falciparum [3], 4.17 µM; with Plasmodium falciparum [4] it was 4.37 µM; with Plasmodium falciparum [5], 4.07 µM.
In series [1], `COc1ccc(-n2ncc(Oc3cccc(C)c3)c(Nc3cccc(C(=O)NCc4ccc(F)cc4)c3)c2=O)cc1` gave an IC50 at 72 h of more than 10 µM. For the same compound, the 50% inhibitory concentration (IC50) was 3.55 µM with Plasmodium falciparum [2], 7.59 µM with Plasmodium falciparum [3], more than 10 µM in the series with Plasmodium falciparum [4] and 5.75 µM in the series with Plasmodium falciparum [5].
In series [1], `CCOc1cc(CNc2cccc3ccccc23)cc(Br)c1OCC(=O)NC(C)(C)C` showed an IC50 at 72 h of more than 10 µM. In addition, the IC50 in the series on Plasmodium falciparum [2], in the series on Plasmodium falciparum [3], in the series with Plasmodium falciparum [4] and in the series on Plasmodium falciparum [5] was more than 10 µM throughout.
`COc1ccc(OC)c(NC(=O)CN2CCc3[nH]c4ccc(F)cc4c(=O)c3C2)c1` came in with an IC50 at 72 h in series [1] of more than 10 µM. Moreover, the IC50 in the series on Plasmodium falciparum [2] is 8.32 µM; in the series on Plasmodium falciparum [3] it was 7.94 µM; in the series with Plasmodium falciparum [4] it was more than 10 µM; in the series with Plasmodium falciparum [5], more than 10 µM.
Compound `COCCNC(=O)c1ccc(-n2nc(-c3nnc(C)o3)c(C)c2-c2ccc(OC)cc2)cc1` showed an IC50 at 72 h in series [1] of more than 10 µM. The IC50 in the series on Plasmodium falciparum [2] is 3.24 µM; in the series on Plasmodium falciparum [3], more than 10 µM; in the series on Plasmodium falciparum [4], more than 10 µM; in the series with Plasmodium falciparum [5] it was 3.63 µM.
`CC1=CC(=[N+](CCO)CCO)C=C/C1=C(\c1ccc(N(CCO)CCO)cc1C)c1ccccc1Cl`: the concentration for half-maximal inhibition (IC50) at 72 h in series [1] was more than 10 µM. Also, the IC50 in the series with Plasmodium falciparum [2] turned out to be 0.0871 µM; with Plasmodium falciparum [3], 0.0871 µM; in the series on Plasmodium falciparum [4] it was 0.166 µM; with Plasmodium falciparum [5] it was 7.41 µM.
In the case of `O=C(Nc1onc2c1CCC2)c1ccc2ccccc2c1`, in series [1], the IC50 at 72 h came to 4.07 µM. Further, the IC50 was determined as 2.82 µM in the series with Plasmodium falciparum [2], 4.27 µM in the series with Plasmodium falciparum [3], 4.79 µM with Plasmodium falciparum [4] and 3.02 µM in the series on Plasmodium falciparum [5].
As to `Cc1ccc(C)c(-n2cnc(=O)n2[C@H]2CCN(C3CC3)C2=O)c1`, in series [1], the IC50 at 72 h was more than 10 µM. For the same compound, the IC50 was 2.95 µM in the series on Plasmodium falciparum [2], 5.75 µM with Plasmodium falciparum [3], 8.32 µM in the series with Plasmodium falciparum [4] and more than 10 µM with Plasmodium falciparum [5].
`Cc1ccc(C2c3ccsc3CCN2CCC(=O)N2CCN(C(=O)Cc3cccs3)C(C)C2)cc1` (stereo not given) showed an IC50 at 72 h in series [1] of more than 10 µM. Besides, the IC50 in the series with Plasmodium falciparum [2] was 8.91 µM; in the series with Plasmodium falciparum [3], 10.5 µM; in the series on Plasmodium falciparum [4], 2.75 µM; with Plasmodium falciparum [5], more than 10 µM.
Turning to `CC(C)[C@@H]1CC[C@H](C)C[C@H]1OC(=O)Cn1cc(-c2ccc(Cl)cc2)[n+]2c1CCC2`, in series [1], the IC50 at 72 h is more than 10 µM. Moreover, the IC50 was determined as 0.955 µM with Plasmodium falciparum [2], 1.2 µM in the series on Plasmodium falciparum [3], 2.34 µM in the series on Plasmodium falciparum [4] and 5.01 µM in the series on Plasmodium falciparum [5].
On the same counts, the results for `NC(=O)c1ccc(C(F)(F)F)n(C[C@H](O)c2cc(Cl)ccc2Cl)c1=O` are more than 10 µM, 2.63 µM, 3.8 µM, 6.17 µM and 7.24 µM.
In the case of `CCc1ccc(C2=C[C@@H](c3cccc(OC)c3)n3ncc(C(=O)Nc4ccc(C)cc4)c3N2)cc1`, in series [1], the IC50 at 72 h was more than 10 µM. For the same compound, the IC50 in the series with Plasmodium falciparum [2] is 2.63 µM; with Plasmodium falciparum [3], 3.8 µM; with Plasmodium falciparum [4], 8.71 µM; with Plasmodium falciparum [5], 3.8 µM.
Take `COCCCn1c(NS(=O)(=O)c2ccc3ccccc3c2)c(S(=O)(=O)c2ccc(C)cc2)c2nc3ccccc3nc21`: the IC50 at 72 h in series [1] was more than 10 µM. The IC50 with Plasmodium falciparum [2] was determined as 2.34 µM; in the series on Plasmodium falciparum [3], 8.51 µM; with Plasmodium falciparum [4] it was 6.76 µM; in the series with Plasmodium falciparum [5], 1.55 µM.
In series [1], `COc1ccc(CNC(=O)c2ccc(N3C(=O)[C@@H]4Cc5c([nH]c6ccccc56)C(c5cccc(OC)c5)N4C3=O)cc2)cc1` (stereo not given in full) showed an IC50 at 72 h of more than 10 µM. For the same compound, the IC50 was 3.16 µM in the series on Plasmodium falciparum [2], 8.91 µM in the series on Plasmodium falciparum [3], more than 10 µM in the series with Plasmodium falciparum [4] and 6.92 µM with Plasmodium falciparum [5].
The compound `CNc1nc(NCCc2ccccc2)nc2ccccc12` had an IC50 at 72 h in series [1] of more than 10 µM. For the same compound, the IC50 was 0.912 µM in the series with Plasmodium falciparum [2], 0.661 µM in the series on Plasmodium falciparum [3], 1.86 µM in the series on Plasmodium falciparum [4] and more than 10 µM in the series with Plasmodium falciparum [5].

A word on the IC50: it is the concentration needed to halve the response being measured.
